Earlier results in patent publication US12673067B2, “Methods, agents, and devices for local neuromodulation of autonomic nerves” (Tulavi Therapeutics, Inc., priority 2016, dated 2026).

Experiments:
GPR120 = target: T1, GPR120 (Homo sapiens, UniProt Q5NUL3)
T1 sequence (Q5NUL3 1-361): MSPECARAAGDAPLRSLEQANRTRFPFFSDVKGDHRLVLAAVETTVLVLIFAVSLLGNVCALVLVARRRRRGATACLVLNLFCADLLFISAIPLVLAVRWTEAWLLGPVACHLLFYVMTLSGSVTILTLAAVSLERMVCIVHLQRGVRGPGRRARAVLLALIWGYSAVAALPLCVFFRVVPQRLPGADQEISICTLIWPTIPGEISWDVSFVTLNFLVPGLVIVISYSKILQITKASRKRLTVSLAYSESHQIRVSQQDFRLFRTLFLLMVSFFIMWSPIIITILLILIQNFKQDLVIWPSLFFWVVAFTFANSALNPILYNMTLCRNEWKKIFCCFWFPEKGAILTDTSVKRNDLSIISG

GPR40 = GPR40 (Homo sapiens, UniProt O14842); conditions: at 100 μM
GPR40, sequence (O14842 whole entry): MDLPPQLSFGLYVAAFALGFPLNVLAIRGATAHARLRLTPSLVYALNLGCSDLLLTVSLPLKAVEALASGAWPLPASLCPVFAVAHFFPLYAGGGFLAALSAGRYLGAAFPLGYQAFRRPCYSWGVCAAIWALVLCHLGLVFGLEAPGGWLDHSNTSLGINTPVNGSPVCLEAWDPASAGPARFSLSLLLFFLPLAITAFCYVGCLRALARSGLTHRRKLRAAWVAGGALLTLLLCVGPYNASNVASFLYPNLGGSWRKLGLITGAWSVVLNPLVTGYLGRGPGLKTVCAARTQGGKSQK

GPR120 agonism (GPR120): Weak GPR120 partial agonist
GPR40 activity (GPR40): without GPR40 activity
Structure (SMILES): CC(C)=CCC/C(C)=C/CC/C(C)=C/Cc1c(O)cc(C)c(C(=O)O)c1O [Grifolic acid]
